The record followed here is ChEMBL document CHEMBL4680233, “A series of novel aryl-methanone derivatives as inhibitors of FMS-like tyrosine kinase 3 (FLT3) in FLT3-ITD-positive acute myeloid leukemia” (Eur J Med Chem, 2020).

The term IC50 denotes the concentration that inhibits the measured activity by half. Low readings indicate higher potency, high ones lower potency. As usually defined, the Kd is a measure of binding affinity in units of concentration. The low end stands for higher affinity, the high end for lower affinity. For orientation: EC50 means the midpoint of the concentration-response curve. High values mean a less potent agent, low ones a more potent agent. What is called solubility is the concentration that dissolves in the medium under given conditions. Higher therefore signals a readily soluble substance.

Data set [1] relates to MV4-11. The experiment in a line: cells. Conditions: Homo sapiens, MV4-11, 72 h.
Description: Cytotoxicity against human MV4-11 cells assessed as reduction in cell viability after 72 hrs by trypan blue dye exclusion method
Data set [2] deals with Receptor-type tyrosine-protein kinase FLT3 (Homo sapiens, UniProt P36888, F691L/ITD).
Description: Binding affinity to human partial length FLT3 ITD/F691L double mutant expressed in mammalian expression system by Kinomescan method
For data set [3], the target named is Receptor-type tyrosine-protein kinase FLT3 (Homo sapiens, UniProt P36888, D835Y).
Data set [4] concerns the target Mitogen-activated protein kinase kinase kinase 20 (Homo sapiens, UniProt Q9NYL2). The data set is described as follows: Inhibition of human ZAK incubated for 30 mins by Kinobead based assay.
Data set [5] concerns the target Mitogen-activated protein kinase kinase kinase kinase 4 (Homo sapiens, UniProt O95819). The experiment in a line: Inhibition of human MAP4K4 incubated for 30 mins by Kinobead based assay.
For the next data set, the target named is Ephrin type-A receptor 7 (Homo sapiens, UniProt Q15375). The data set is described as follows: Inhibition of human EPHA7 incubated for 30 mins by Kinobead based assay.
Chain of Ephrin type-A receptor 7 (Q15375 whole entry): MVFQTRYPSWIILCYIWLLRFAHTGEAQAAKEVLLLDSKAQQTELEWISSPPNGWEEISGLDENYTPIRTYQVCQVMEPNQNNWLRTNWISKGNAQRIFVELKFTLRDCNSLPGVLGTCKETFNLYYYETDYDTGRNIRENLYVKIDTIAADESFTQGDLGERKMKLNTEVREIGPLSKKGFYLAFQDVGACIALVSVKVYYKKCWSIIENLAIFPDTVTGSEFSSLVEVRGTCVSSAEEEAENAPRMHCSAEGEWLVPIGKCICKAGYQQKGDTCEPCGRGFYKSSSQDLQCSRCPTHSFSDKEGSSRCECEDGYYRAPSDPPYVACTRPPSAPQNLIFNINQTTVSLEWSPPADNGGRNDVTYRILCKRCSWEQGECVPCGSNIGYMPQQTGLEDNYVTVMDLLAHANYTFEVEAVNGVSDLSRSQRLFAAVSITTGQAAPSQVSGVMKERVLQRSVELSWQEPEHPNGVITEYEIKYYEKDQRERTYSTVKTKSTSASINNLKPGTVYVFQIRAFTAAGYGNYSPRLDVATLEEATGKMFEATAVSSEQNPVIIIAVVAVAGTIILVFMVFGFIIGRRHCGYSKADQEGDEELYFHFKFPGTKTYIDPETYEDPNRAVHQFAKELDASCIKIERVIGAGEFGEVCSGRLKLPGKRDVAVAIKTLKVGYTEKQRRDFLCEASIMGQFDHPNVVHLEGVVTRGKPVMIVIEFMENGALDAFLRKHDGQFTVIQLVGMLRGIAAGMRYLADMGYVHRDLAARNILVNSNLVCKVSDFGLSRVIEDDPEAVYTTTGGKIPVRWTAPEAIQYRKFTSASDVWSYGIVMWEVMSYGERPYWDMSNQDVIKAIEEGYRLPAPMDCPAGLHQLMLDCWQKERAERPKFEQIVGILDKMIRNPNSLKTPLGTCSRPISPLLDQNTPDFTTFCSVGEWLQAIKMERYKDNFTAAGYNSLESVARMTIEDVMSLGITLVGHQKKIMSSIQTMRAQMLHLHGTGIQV
The target of data set [6] is Receptor-type tyrosine-protein kinase FLT3 (Homo sapiens, UniProt P36888, ITD).
Data set [7] deals with Receptor-type tyrosine-protein kinase FLT3 (Homo sapiens) (UniProt P36888). Conditions: MV4-11, dose 20-40 nM, time 3.0 hrs.
For data set [8], the target named is Proto-oncogene tyrosine-protein kinase receptor Ret (Homo sapiens, UniProt P07949). The experiment in a line: Inhibition of human RET incubated for 30 mins by Kinobead based assay.
Chain of Proto-oncogene tyrosine-protein kinase receptor Ret (P07949 whole entry): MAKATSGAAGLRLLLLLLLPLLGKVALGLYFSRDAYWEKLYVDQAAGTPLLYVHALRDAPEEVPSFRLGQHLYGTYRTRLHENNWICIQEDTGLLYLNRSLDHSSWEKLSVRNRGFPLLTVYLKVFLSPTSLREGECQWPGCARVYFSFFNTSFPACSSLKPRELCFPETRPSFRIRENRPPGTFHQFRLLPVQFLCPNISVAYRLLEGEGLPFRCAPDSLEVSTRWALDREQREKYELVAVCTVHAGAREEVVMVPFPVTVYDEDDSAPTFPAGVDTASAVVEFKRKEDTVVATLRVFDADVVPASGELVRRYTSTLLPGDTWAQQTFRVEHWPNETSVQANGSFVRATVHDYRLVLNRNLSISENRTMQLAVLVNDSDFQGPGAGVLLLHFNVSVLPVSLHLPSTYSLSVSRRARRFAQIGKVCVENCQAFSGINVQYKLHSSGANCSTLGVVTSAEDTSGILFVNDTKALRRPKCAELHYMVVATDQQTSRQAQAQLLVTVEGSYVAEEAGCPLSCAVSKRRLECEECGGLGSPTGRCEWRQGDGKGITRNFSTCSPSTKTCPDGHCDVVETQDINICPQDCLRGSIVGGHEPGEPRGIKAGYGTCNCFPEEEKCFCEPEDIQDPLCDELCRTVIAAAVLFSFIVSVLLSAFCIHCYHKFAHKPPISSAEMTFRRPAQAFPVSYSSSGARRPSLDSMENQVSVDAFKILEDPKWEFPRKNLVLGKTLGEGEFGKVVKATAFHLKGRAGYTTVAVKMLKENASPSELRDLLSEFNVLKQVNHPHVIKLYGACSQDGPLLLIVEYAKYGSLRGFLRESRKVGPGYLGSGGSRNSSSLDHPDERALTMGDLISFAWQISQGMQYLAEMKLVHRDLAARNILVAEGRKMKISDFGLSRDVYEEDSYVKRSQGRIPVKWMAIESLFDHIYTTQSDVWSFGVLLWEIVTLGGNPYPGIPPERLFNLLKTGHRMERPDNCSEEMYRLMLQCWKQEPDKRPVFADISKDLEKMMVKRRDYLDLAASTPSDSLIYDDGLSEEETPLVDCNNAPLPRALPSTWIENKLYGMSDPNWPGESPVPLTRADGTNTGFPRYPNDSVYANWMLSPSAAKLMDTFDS
Data set [9] has as its target Receptor-type tyrosine-protein kinase FLT3 (Homo sapiens, UniProt P36888). The data set is described as follows: Inhibition of human FLT3 incubated for 30 mins by Kinobead based assay.
Data set [10] addresses Discoidin domain-containing receptor 2 (Homo sapiens, UniProt Q16832). The experiment in a line: Inhibition of human DDR2 incubated for 30 mins by Kinobead based assay.
For data set [11], the target named is Cyclin-dependent kinase 16 (Homo sapiens, UniProt Q00536). The experiment in a line: Inhibition of human CDK16 incubated for 30 mins by Kinobead based assay.
Chain of Cyclin-dependent kinase 16 (Q00536 whole entry): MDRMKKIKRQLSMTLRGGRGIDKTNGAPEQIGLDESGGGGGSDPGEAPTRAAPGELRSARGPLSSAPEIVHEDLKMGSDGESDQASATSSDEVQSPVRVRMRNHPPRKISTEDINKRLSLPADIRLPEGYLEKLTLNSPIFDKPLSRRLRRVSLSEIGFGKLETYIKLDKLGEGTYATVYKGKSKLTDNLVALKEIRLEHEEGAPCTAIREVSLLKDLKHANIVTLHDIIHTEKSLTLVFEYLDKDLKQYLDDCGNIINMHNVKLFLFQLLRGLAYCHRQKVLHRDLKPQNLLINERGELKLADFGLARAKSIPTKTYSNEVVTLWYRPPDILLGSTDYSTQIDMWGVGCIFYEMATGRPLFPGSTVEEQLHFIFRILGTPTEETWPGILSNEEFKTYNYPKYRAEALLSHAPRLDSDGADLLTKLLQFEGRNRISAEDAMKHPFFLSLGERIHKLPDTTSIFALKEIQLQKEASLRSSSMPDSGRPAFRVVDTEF
Another data set relates to HL-60. The experiment in a line: cells. Conditions: Homo sapiens, HL-60, 96 h.
Another data set in a line: physchem. Particulars: water.
For the next data set, the system named is L-363. The data set is described as follows: cells. Conditions: Homo sapiens, L-363, 96 h.
A further data set concerns U-266. The experiment in a line: cells. Conditions: Homo sapiens, U-266, 96 h.
A further data set relates to THP-1. The experiment in a line: cells. Particulars: Homo sapiens, THP-1, 96 h.
A further data set concerns KMOE-2. The data set is described as follows: cells. Particulars: Homo sapiens, KMOE-2, 96 h.
A further data set deals with OCI-AML-5. The data set is described as follows: cells. Particulars: Homo sapiens, OCI-AML-5, 96 h.
A further data set concerns SKM-1. The experiment in a line: cells. Conditions: Homo sapiens, SKM-1, 96 h.
The next data set relates to KG-1. The data set is described as follows: cells. Particulars: Homo sapiens, KG-1, 96 h.
A further data set relates to NOMO-1. The data set is described as follows: cells. Conditions: Homo sapiens, NOMO-1, 96 h.
The next data set relates to OPM-2. The experiment in a line: cells. Conditions: Homo sapiens, OPM-2, 96 h.
Data set [12] can be described thus: cells. Particulars: Homo sapiens, MOLP-2, 96 h.
Description: Cytotoxicity against human MOLP-2 cells assessed as reduction in cell viability after 4 days by CellTiter-Blue assay
Data set [13] can be described thus: Toxicity in NMRI nu/nu mouse assessed as weight gain at 75 mg/kg/day, po for 3 days relative to control. It is filed as organism-based. Conditions: in vivo, 72 h, time 3 day.
The nature of data set [14]: cells. Particulars: Homo sapiens, Mono-Mac-1, 96 h.
Description: Cytotoxicity against human MONO-MAC-1 cells assessed as reduction in cell viability after 4 days by CellTiter-Blue assay
The subject of another data set is EOL1. The data set is described as follows: cells. Conditions: Homo sapiens, EOL1, 96 h.
The subject of the next data set is RPMI-8226. The experiment in a line: cells. Particulars: Homo sapiens, RPMI-8226, 96 h.
The next data set relates to OCI-AML2. The experiment in a line: cells. Particulars: Homo sapiens, OCI-AML2, 96 h.
The test system of the next data set is TF-1. The data set is described as follows: cells. Conditions: Homo sapiens, TF-1, 96 h.
The subject of data set [15] is MV4-11. The data set is described as follows: cells. Particulars: Homo sapiens, MV4-11, 96 h.
Description: Cytotoxicity against human MV4-11 cells assessed as reduction in cell viability after 4 days by CellTiter-Blue assay
A short description of data set [16]: Toxicity in NMRI nu/nu mouse assessed as lethality at 75 mg/kg/day, po for 3 days. The format is organism-based. Particulars: in vivo, 72 h, time 3 day.
Data set [17] is described as follows: cells. Particulars: Homo sapiens, ME-1, 96 h.
Description: Cytotoxicity against human ME-1 cells assessed as reduction in cell viability after 4 days by CellTiter-Blue assay
A further data set deals with IM-9. The experiment in a line: cells. Particulars: Homo sapiens, IM-9, 96 h.
The next data set has as its system NB-4. The data set is described as follows: cells. Particulars: Homo sapiens, NB-4, 96 h.
Data set [18] can be described thus: cells. Conditions: Homo sapiens, PL-21, 96 h.
Description: Cytotoxicity against human PL21 cells assessed as reduction in cell viability after 4 days by CellTiter-Blue assay
A further data set has as its system MOLM-13. The experiment in a line: cells. Conditions: Homo sapiens, MOLM-13, 96 h.
In the next data set the test system is KG-1a. The experiment in a line: cells. Particulars: Homo sapiens, 96 h.
The test system of another data set is ML-2. The experiment in a line: cells. Conditions: Homo sapiens, ML-2, 96 h.
The nature of data set [19]: cells. Conditions: Homo sapiens, OCI-M1, 96 h.
Description: Cytotoxicity against human OCI-M1 cells assessed as reduction in cell viability after 4 days by CellTiter-Blue assay
The subject of the next data set is MONO-MAC-6. The experiment in a line: cells. Conditions: Homo sapiens, MONO-MAC-6, 96 h.

Calls of active or inactive are those of the source. No cut-off for these calls is given here.

Chain of Mitogen-activated protein kinase kinase kinase kinase 4 (O95819 whole entry): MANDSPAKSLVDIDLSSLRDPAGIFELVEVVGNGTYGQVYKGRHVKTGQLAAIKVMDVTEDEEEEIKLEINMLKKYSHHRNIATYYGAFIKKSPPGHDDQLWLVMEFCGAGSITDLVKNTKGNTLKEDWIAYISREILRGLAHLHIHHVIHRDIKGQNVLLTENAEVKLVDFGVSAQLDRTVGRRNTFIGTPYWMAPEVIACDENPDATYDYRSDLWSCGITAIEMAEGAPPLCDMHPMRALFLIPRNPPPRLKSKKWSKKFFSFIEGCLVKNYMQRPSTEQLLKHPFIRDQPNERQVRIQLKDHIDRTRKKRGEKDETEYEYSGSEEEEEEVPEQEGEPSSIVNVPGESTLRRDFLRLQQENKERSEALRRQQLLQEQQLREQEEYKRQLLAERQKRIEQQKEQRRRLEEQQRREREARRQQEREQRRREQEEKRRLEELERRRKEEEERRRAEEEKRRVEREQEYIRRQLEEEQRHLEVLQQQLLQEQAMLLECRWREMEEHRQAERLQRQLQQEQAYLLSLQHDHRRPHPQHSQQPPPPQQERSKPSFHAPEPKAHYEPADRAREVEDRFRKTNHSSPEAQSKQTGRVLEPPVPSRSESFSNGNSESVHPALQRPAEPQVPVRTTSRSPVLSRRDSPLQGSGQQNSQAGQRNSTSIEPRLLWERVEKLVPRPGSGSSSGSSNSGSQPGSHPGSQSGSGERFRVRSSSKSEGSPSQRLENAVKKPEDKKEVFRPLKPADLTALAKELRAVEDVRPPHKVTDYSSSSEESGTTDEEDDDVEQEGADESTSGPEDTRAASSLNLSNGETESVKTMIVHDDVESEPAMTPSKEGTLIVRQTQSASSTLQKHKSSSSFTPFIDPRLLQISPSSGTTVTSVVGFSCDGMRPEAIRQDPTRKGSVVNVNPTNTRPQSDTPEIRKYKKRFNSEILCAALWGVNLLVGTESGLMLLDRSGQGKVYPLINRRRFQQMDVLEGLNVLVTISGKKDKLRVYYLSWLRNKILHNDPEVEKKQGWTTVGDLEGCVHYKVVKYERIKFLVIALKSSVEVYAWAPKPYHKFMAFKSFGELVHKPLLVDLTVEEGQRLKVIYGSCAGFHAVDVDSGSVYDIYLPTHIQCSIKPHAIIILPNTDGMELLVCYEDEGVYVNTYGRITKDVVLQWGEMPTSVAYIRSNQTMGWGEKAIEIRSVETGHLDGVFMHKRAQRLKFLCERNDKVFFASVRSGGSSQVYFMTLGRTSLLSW
Chain of Mitogen-activated protein kinase kinase kinase 20 (Q9NYL2 whole entry): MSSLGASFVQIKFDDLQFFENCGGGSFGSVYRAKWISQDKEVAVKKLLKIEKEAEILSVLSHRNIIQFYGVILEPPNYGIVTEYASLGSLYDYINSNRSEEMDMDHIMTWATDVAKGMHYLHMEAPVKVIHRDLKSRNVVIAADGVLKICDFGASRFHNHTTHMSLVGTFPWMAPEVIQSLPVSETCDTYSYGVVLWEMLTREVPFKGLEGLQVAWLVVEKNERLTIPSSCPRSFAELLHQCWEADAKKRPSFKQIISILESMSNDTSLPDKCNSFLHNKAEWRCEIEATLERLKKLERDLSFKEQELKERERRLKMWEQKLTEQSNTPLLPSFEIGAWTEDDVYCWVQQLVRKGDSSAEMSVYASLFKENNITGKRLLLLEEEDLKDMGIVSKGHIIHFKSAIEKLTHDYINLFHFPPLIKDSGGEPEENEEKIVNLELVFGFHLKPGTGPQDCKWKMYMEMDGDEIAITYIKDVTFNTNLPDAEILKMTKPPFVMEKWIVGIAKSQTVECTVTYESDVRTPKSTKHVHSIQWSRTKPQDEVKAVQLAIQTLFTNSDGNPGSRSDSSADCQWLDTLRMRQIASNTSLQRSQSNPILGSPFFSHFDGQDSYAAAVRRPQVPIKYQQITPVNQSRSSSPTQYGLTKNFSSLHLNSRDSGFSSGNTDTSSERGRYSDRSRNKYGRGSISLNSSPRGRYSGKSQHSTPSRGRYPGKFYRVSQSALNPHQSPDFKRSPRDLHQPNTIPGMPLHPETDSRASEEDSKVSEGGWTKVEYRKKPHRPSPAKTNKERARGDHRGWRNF
Description for EOL1: Cytotoxicity against human EOL1 cells assessed as reduction in cell viability after 4 days by CellTiter-Blue assay
Description for HL-60: Cytotoxicity against human HL-60 cells assessed as reduction in cell viability after 4 days by CellTiter-Blue assay
Description for IM-9: Cytotoxicity against human IM-9 cells assessed as reduction in cell viability after 4 days by CellTiter-Blue assay
Description for KG-1a: Cytotoxicity against human KG-1a cells assessed as reduction in cell viability after 4 days by CellTiter-Blue assay
Description for KMOE-2: Cytotoxicity against human KMOE-2 cells assessed as reduction in cell viability after 4 days by CellTiter-Blue assay
Description for L-363: Cytotoxicity against human L-363 cells assessed as reduction in cell viability after 4 days by CellTiter-Blue assay
Description for ML-2: Cytotoxicity against human ML-2 cells assessed as reduction in cell viability after 4 days by CellTiter-Blue assay
Description for MOLM-13: Cytotoxicity against human MOLM-13 cells assessed as reduction in cell viability after 4 days by CellTiter-Blue assay
Description for MONO-MAC-6: Cytotoxicity against human MONO-MAC-6 cells assessed as reduction in cell viability after 4 days by CellTiter-Blue assay
Description for NB-4: Cytotoxicity against human NB-4 cells assessed as reduction in cell viability after 4 days by CellTiter-Blue assay
Description for NOMO-1: Cytotoxicity against human NOMO-1 cells assessed as reduction in cell viability after 4 days by CellTiter-Blue assay
Description for OCI-AML-5: Cytotoxicity against human OCI-AML5 cells assessed as reduction in cell viability after 4 days by CellTiter-Blue assay
Description for OCI-AML2: Cytotoxicity against human OCI-AML2 cells assessed as reduction in cell viability after 4 days by CellTiter-Blue assay
Description for OPM-2: Cytotoxicity against human OPM-2 cells assessed as reduction in cell viability after 4 days by CellTiter-Blue assay
Description for RPMI-8226: Cytotoxicity against human RPMI-8226 cells assessed as reduction in cell viability after 4 days by CellTiter-Blue assay
Description for SKM-1: Cytotoxicity against human SKM-1 cells assessed as reduction in cell viability after 4 days by CellTiter-Blue assay
Description for TF-1: Cytotoxicity against human TF-1 cells assessed as reduction in cell viability after 4 days by CellTiter-Blue assay
Description for THP-1: Cytotoxicity against human THP-1 cells assessed as reduction in cell viability after 4 days by CellTiter-Blue assay
Description for U-266: Cytotoxicity against human U-266 cells assessed as reduction in cell viability after 4 days by CellTiter-Blue assay
Description for physchem: Solubility of compound in water at 10 mg after 3 hrs by UV-spectra analysis

`Cc1cccc2[nH]c(C(=O)c3cc4cc(NC(=O)Nc5cc(C(C)(C)C)on5)ccc4[nH]3)cc12` had a half-maximal inhibitory concentration (IC50) in the data set with MV4-11 [1] of 13.5 nM.
`CC(C)(C)c1cc(NC(=O)Nc2ccc3oc(C(=O)c4cc5cc(O)ccc5[nH]4)cc3c2)no1` showed an equilibrium dissociation constant (Kd) in [2] of 115 nM. In addition, the IC50 is 4.84 nM in data set [3] and 2.3 nM in data set [6]. The EC50 in data set [4] was found to be 3260 nM; in data set [5], 3860 nM; on Ephrin type-A receptor 7, 3260 nM; in data set [8], 2490 nM; in data set [9], 1770 nM; in [10], 2490 nM. The compound also yielded an EC50 in data set [11] of 1770 nM. Moreover, the inhibition result in data set [7] is “Active”.
The compound `Cc1cccc2[nH]c(C(=O)c3cc4c(NC(=O)Nc5cc(C(C)(C)C)on5)cccc4[nH]3)cc12` had an IC50 with MV4-11 [1] of over 100 nM.
Same read-out and setting: under `CC(C)(C)c1cc(NC(=O)Nc2ccc3[nH]c(C(=O)c4cc5cc(O)ccc5[nH]4)cc3c2)no1` stands 1.7 nM; under `Cc1cc(NC(=O)Nc2ccc3[nH]c(C(=O)c4cc5cc(O)ccc5[nH]4)cc3c2)no1`, over 100 nM; under `Cc1cccc2[nH]c(C(=O)c3cc4ccc(NC(=O)Nc5cc(C(C)(C)C)on5)cc4[nH]3)cc12`, 23.5 nM.
As for `CC(C)(C)c1cc(NC(=O)Nc2ccc3oc(C(=O)c4cc5cc(OC(=O)N6CCC(N7CCCCC7)CC6)ccc5[nH]4)cc3c2)no1.Cl`, the IC50 in the data set with HL-60 amounted to 2.35 nM; in the data set on L-363, 1.61 nM; in the data set with U-266 it was 1.37 nM; in the data set on THP-1 it was 2.12 nM; with KMOE-2 it was 5.33 nM; in the data set with OCI-AML-5 it was 0.159 nM. Besides, the IC50 in the data set on SKM-1 was 1.35 nM; in the data set on KG-1 it was 0.556 nM; in the data set with NOMO-1, 1.21 nM; with OPM-2, 1.33 nM; in “cells [12]”, 2.27 nM; in the data set “cells [14]”, 0.001 nM. Besides, the IC50 turned out to be 0.0001 nM in the data set with EOL1; 2.37 nM in the data set on RPMI-8226; 1.39 nM in the data set with OCI-AML2; 5.31 nM with TF-1; 0.0009 nM in the data set on MV4-11 [15]; 2.36 nM in “cells [17]”. In addition, the IC50 in the data set on IM-9 is 2.25 nM; with NB-4 it was 3.6 nM; in the data set “cells [18]”, 1.3 nM; in the data set on MOLM-13, 0.002 nM; in the data set on KG-1a it was 0.613 nM; in the data set with ML-2 it was 1.49 nM. The IC50 in “cells [19]” is 0.695 nM; in the data set with MONO-MAC-6 it was 0.011 nM. Further, in “physchem”, the concentration in solution (solubility at 3 h) came to 230 µg/mL. Further, the values for the Activity in [13] and in [16] were 3% and “Non-Toxic”, respectively.
`Cc1cccc2[nH]c(C(=O)c3cc4cccc(NC(=O)Nc5cc(C(C)(C)C)on5)c4[nH]3)cc12` registered an IC50 in the data set on MV4-11 [1] of over 100 nM.
Same read-out and setting: under `CC(C)(C)c1cc(NC(=O)Nc2cc3cc(C(=O)c4cc5cc(O)ccc5o4)[nH]c3cn2)no1` stands 29.8 nM; under `CC(C)(C)c1cc(NC(=O)Nc2ccc3[nH]c(C(=O)c4cc5cc(O)ccc5o4)cc3c2)no1`, 0.78 nM.
`CC(C)(C)c1cc(NC(=O)Nc2cnc3[nH]c(C(=O)c4cc5cc(O)ccc5[nH]4)cc3c2)no1` had an IC50 in the data set on MV4-11 [1] of over 100 nM.
For `CC(C)(C)c1nnc(NC(=O)Nc2ccc3[nH]c(C(=O)c4cc5cc(O)ccc5[nH]4)cc3c2)s1`, half-maximal inhibition in the data set on MV4-11 [1] (IC50) required 14.4 nM.
